Measured values taken from patent publication US10106558B2, “Azolobenzazine compounds, compositions comprising these compounds and their use for controlling invertebrate pests” (BASF SE, priority 2015, dated 2018).
Read-outs that look alike come from different tables or passages of the source.

Legend:
Format in all cases: in vivo
[1] = system: boll weevil (Anthonomus grandis); assay: Action on boll weevil, eggs on insect diet in 96-well microtiter plates; settings: 120 h, read-out: mortality in comparison with untreated controls
Protocol: Example B3: Action on Boll Weevil (Anthonomus grandis)
For evaluating control of boll weevil (Anthonomus grandis) the test unit consisted of 96-well-microtiter plates containing an insect diet and 5-10 A. grandis eggs.
(§1) The compounds were formulated using a solution containing 75% v/v water and 25% v/v DMSO. Different concentrations of formulated compounds were sprayed onto the insect diet at 5 μl, using a custom built micro atomizer, at two replications.
After application, microtiter plates were incubated at about 25±1° C. and about 75±5% relative humidity for 5 days. Egg and larval mortality was then visually assessed.

[2] = system: Orchid Thrips (Dichromothrips corbetti); assay: Action on orchid thrips, floral-immersion technique; settings: adult thrips, 72 hours after treatment, read-out: mortality in comparison with untreated controls
Protocol: Example B2: Action on Orchid Thrips (Dichromothrips Corbetti)
Dichromothrips corbettiadults used for bioassay were obtained from a colony maintained continuously under laboratory conditions. For testing purposes, the test compound is diluted in a 1:1 mixture of acetone:water (vol:vol), plus Kinetic® HV at a rate of 0.01% v/v.
Thrips potency of each compound was evaluated by using a floral-immersion technique. All petals of individual, intact orchid flowers were dipped into treatment solution and allowed to dry in Petri dishes. Treated petals were placed into individual re-sealable plastic along with about 20 adult thrips. All test arenas were held under continuous light and a temperature of about 28° C. for duration of the assay. After 3 days, the numbers of live thrips were counted on each petal. The percent mortality was recorded 72 hours after treatment.

[3] = system: Mediterranean fruitfly (Ceratitis capitata); assay: Action on Mediterranean fruitfly, eggs on insect diet in microtiter plates; settings: 120 h, egg and larval mortality visually assessed after 5 days, read-out: mortality in comparison with untreated controls
Protocol: Example B5: Action on Mediterranean Fruitfly (Ceratitis capitata)
For evaluating control of Mediterranean fruitfly (Ceratitis capitata) the test unit consisted of microtiter plates containing an insect diet and 50-80 C. capitata eggs.
as §1
After application, microtiter plates were incubated at about […] and about 80+5% relative humidity for 5 days. Egg and larval mortality was then visually assessed.

[4] = system: yellow fever mosquito (Aedes aegypti); assay: whole plant or invertebrate; settings: 48 h, larval mortality visually assessed after 2 days, read-out: mortality in comparison with untreated controls
Protocol: Example B1: Action on Yellow Fever Mosquito (Aedes aegypti)
For evaluating control of yellow fever mosquito (Aedes aegypti) the test unit consisted of 96-well-microtiter plates containing 200 μl of tap water per well and 5-15 freshly hatched A. aegypti larvae.
The active compounds were formulated using a solution containing 75% (v/v) water and 25% (v/v) DMSO. Different concentrations of formulated compounds or mixtures were sprayed onto the insect diet at 2.5 μl, using a custom built micro atomizer, at two replications.
After application, microtiter plates were incubated at 28+1° C., 80+5% RH for 2 days. Larval mortality was then visually assessed.

[5] = system: tobacco budworm (Heliothis virescens); assay: Action on tobacco budworm, eggs on insect diet in 96-well microtiter plates; settings: 120 h, egg and larval mortality visually assessed after 5 days, read-out: mortality in comparison with untreated controls
Protocol: Example B6: Action on Tobacco Budworm (Heliothis virescens)
For evaluating control of tobacco budworm (Heliothis virescens) the test unit consisted of 96-well-microtiter plates containing an insect diet and 15-25 H. virescens eggs.
The compounds were formulated using a solution containing 75% v/v water and 25% v/v DMSO. Different concentrations of formulated compounds were sprayed onto the insect diet at 10 μl, using a custom built micro atomizer, at two replications.
After application, microtiter plates were incubated at about 28±1° C. and about 80±5% relative humidity for 5 days. Egg and larval mortality was then visually assessed.

[6] = system: Diamond Back Moth (Plutella xylostella); assay: Action on diamond back moth, dipped cabbage leaves; settings: 3rd instar larvae, 72 hours after treatment, read-out: mortality in comparison with untreated controls
Protocol: Example B9: Action on Diamond Back Moth (Plutella xylostella)
The active compound is dissolved at the desired concentration in a mixture of 1:1 (vol:vol) distilled water:acetone. Surfactant (Kinetic® HV) is added at a rate of 0.01% (vol/vol). The test solution is prepared at the day of use.
Leaves of cabbage were dipped in test solution and air-dried. Treated leaves were placed in petri dishes lined with moist filter paper and inoculated with ten 3rd instar larvae. Mortality was recorded 72 hours after treatment. Feeding damages were also recorded using a scale of 0-100%.

[7] = system: Southern Armyworm (Spodoptera eridania), 2nd instar larvae; assay: Action on southern armyworm 2nd instar larvae, sprayed lima bean plants; settings: 96 h, 4 days after treatment, read-out: mortality in comparison with untreated controls
Protocol: Example B10: Action on Southern Armyworm (Spodoptera eridania), 2nd Instar Larvae
The active compounds were formulated by a Tecan liquid handler in 100% cyclohexanone as a 10,000 ppm solution supplied in tubes. The 10,000 ppm solution was serially diluted in 100% cyclohexanone to make interim solutions. These served as stock solutions for which final dilutions were made by the Tecan in 50% acetone:50% water (v/v) into 10 or 20 ml glass vials. A nonionic surfactant (Kinetic®) was included in the solution at a volume of 0.01% (v/v). The vials were then inserted into an automated electrostatic sprayer equipped with an atomizing nozzle for application to plants/insects.
Lima bean plants (variety Sieva) were grown 2 plants to a pot and selected for treatment at the 1st true leaf stage. Test solutions were sprayed onto the foliage by an automated electrostatic plant sprayer equipped with an atomizing spray nozzle. The plants were dried in the sprayer fume hood and then removed from the sprayer. Each pot was placed into perforated plastic bags with a zip closure. About 10 to 11 armyworm larvae were placed into the bag and the bags zipped closed. Test plants were maintained in a growth room at about 25° C. and about 20-40% relative humidity for 4 days, avoiding direct exposure to fluorescent light (24 hour photoperiod) to prevent trapping of heat inside the bags. Mortality and reduced feeding were assessed 4 days after treatment, compared to untreated control plants.

[8] = 800 ppm, egg and larval mortality visually assessed after 5 days

Cc1cccc(C)c1NC(=S)N/N=C/c1cnc2c(ccc3c2ncn3-c2ccc(OC(F)(F)F)cc2)c1 [Compound C-14, 1-(2,6-dimethylphenyl)-3-[(E)-[3-[4-(trifluoromethoxy)phenyl]imidazo[4,5-h]quinolin-7-yl]methyleneamino]thiourea]
≥ 75%: mortality at 800 ppm [1, 8] | mortality at 500 ppm [2] | mortality at 800 ppm [3] | mortality at 800 ppm [4] | mortality at 800 ppm [5] | mortality at 500 ppm [6]

Cc1cccc(C)c1NC(=S)N/N=C/c1ccc2c(ccc3c2ncn3-c2ccc(OC(F)(F)F)cc2)n1 [Compound C-1, 1-(2,6-dimethylphenyl)-3-[(E)-[3-[4-(trifluoromethoxy)phenyl]imidazo[4,5-f]quinolin-7-yl]methyleneamino]thiourea]
≥ 75%: mortality at 800 ppm [1, 8] | mortality at 800 ppm [3] | mortality at 800 ppm [4] | mortality at 800 ppm [5]

Cc1cccc(C)c1N1C(=O)CS/C1=N\N=C\c1cc2ccc3c(ncn3-c3ccc(OC(F)(F)F)cc3)c2cn1 [Compound C-27, (2Z)-3-(2,6-dimethylphenyl)-2-[(E)-[3-[4-(trifluoromethoxy)phenyl]imidazo[4,5-h]isoquinolin-7-yl]methylenehydrazono]thiazolidin-4-one]
≥ 75%: mortality at 800 ppm [1, 8] | mortality at 500 ppm [2] | mortality at 800 ppm [3] | mortality at 500 ppm [7] | mortality at 800 ppm [4] | mortality at 800 ppm [5] | mortality at 500 ppm [6]

CC(C)c1ccccc1NC(=S)N/N=C/c1cc2ccc3c(ncn3-c3ccc(OC(F)(F)F)cc3)c2cn1 [Compound C-24, 1-(2-isopropylphenyl)-3-[(E)-[3-[4-(trifluoromethoxy)phenyl]imidazo[4,5-h]isoquinolin-7-yl]methyleneamino]thiourea]
≥ 75%: mortality at 800 ppm [1, 8] | mortality at 800 ppm [3] | mortality at 500 ppm [7] | mortality at 800 ppm [5] | mortality at 500 ppm [6]

CC1CCC(C(C)C)C(OC(=O)Nc2ccc3c(ccc4c3ncn4-c3ccc(OC(F)(F)F)cc3)n2)C1 (centres unmarked) [Compound C-12, (2-isopropyl-5-methyl-cyclohexyl) N-[3-[4-(trifluoromethoxy)phenyl]imidazo[4,5-f]quinolin-7-yl]carbamate]
≥ 75%: mortality at 800 ppm [1]

CC(C)c1ccccc1N1CCCS/C1=N/N=C/c1ccc2c(ccc3c2ncn3-c2ccc(OC(F)(F)F)cc2)n1 [Compound C-22, (E)-3-(2-isopropylphenyl)-N-[(E)-[3-[4-(trifluoromethoxy)phenyl]imidazo[4,5-f]quinolin-7-yl]methyleneamino]-1,3-thiazinan-2-imine]
≥ 75%: mortality at 800 ppm [1, 8] | mortality at 500 ppm [2] | mortality at 800 ppm [3] | mortality at 800 ppm [4] | mortality at 800 ppm [5] | mortality at 500 ppm [6]

Cc1cccc(C)c1N1C(=O)CS/C1=N\N=C\c1ccc2c(ccc3c2ncn3-c2ccc(OC(F)(F)F)cc2)n1 [Compound C-2, (2Z)-3-(2,6-dimethylphenyl)-2-[(E)-[3-[4-(trifluoromethoxy)phenyl]imidazo[4,5-f]quinolin-7-yl]methylenehydrazono]thiazolidin-4-one]
≥ 75%: mortality at 800 ppm [1, 8] | mortality at 500 ppm [2] | mortality at 800 ppm [3] | mortality at 500 ppm [7] | mortality at 800 ppm [4] | mortality at 800 ppm [5] | mortality at 500 ppm [6]

CC(C)c1ccccc1NC(=S)N/N=C/c1ccc2c(ccc3c2ncn3-c2ccc(OC(F)F)cc2)n1 [Compound C-31, 1-[(E)-[3-[4-(difluoromethoxy)phenyl]imidazo[4,5-f]quinolin-7-yl]methyleneamino]-3-(2-isopropylphenyl)thiourea]
≥ 75%: mortality at 500 ppm [2] | mortality at 500 ppm [6]

CC(C)c1ccccc1N1C(=O)CS/C1=N\N=C\c1cc2ccc3c(ncn3-c3ccc(OC(F)(F)F)cc3)c2cn1 [Compound C-26, (2Z)-3-(2-isopropylphenyl)-2-[(E)-[3-[4-(trifluoromethoxy)phenyl]imidazo[4,5-h]isoquinolin-7-yl]methylenehydrazono]thiazolidin-4-one]
≥ 75%: mortality at 800 ppm [1, 8] | mortality at 500 ppm [2] | mortality at 800 ppm [3] | mortality at 500 ppm [7] | mortality at 800 ppm [4] | mortality at 800 ppm [5] | mortality at 500 ppm [6]

CC(C)c1ccccc1N1C(=O)CS/C1=N/N=C/c1ccc2c(ccc3c2ncn3-c2ccc(OC(F)F)cc2)n1 [Compound C-32, (2E)-2-[(E)-[3-[4-(difluoromethoxy)phenyl]imidazo[4,5-f]quinolin-7-yl]methylenehydrazono]-3-(2-isopropylphenyl)thiazolidin-4-one]
≥ 75%: mortality at 500 ppm [2] | mortality at 500 ppm [6]

CC(C)c1ccccc1NC(=S)N/N=C/c1cnc2c(ccc3c2ncn3-c2ccc(OC(F)(F)F)cc2)c1 [Compound C-13, 1-(2-isopropylphenyl)-3-[(E)-[3-[4-(trifluoromethoxy)phenyl]imidazo[4,5-h]quinolin-7-yl]methyleneamino]thiourea]
≥ 75%: mortality at 800 ppm [1, 8] | mortality at 800 ppm [3] | mortality at 500 ppm [7] | mortality at 800 ppm [5] | mortality at 500 ppm [6]

Cc1cccc(C)c1NC(=S)N/N=C/c1cc2ccc3c(ncn3-c3ccc(OC(F)(F)F)cc3)c2cn1 [Compound C-25, 1-(2,6-dimethylphenyl)-3-[(E)-[3-[4-(trifluoromethoxy)phenyl]imidazo[4,5-h]isoquinolin-7-yl]methyleneamino]thiourea]
≥ 75%: mortality at 800 ppm [1, 8] | mortality at 800 ppm [3] | mortality at 800 ppm [5] | mortality at 500 ppm [6]
